Assays:
[1] = test system: androgen signaling signature in LNCaP cells; test: GE-HTS androgen signaling signature assay / screen; conditions: for GE-HTS screen # replicates that score as the androgon deprived state (n = 3): KNN / GE-HTS screen # replicates that score as the androgon deprived state (n = 3): Naïve Bayes classifier (P < 0.05) / GE-HTS screen # replicates that score as the androgon deprived state (n = 3): unweighted summed score (P < 0.05) / GE-HTS screen # replicates that score as the androgon deprived state (n = 3): weighted summed score (P < 0.05): LNCaP, 1 nM R1881 plus compound ~20 μM, 24 hr, count of 3 replicates
celastrol signature = test: Connectivity Map query with the celastrol signature; type: cell-based, human; design: key to celastrol score (connectivity score): connectivity score, based on Kolmogorov-Smirnov statistic; conditions: for celastrol score (connectivity score): enrichment of the celastrol signature (1.25 μM celastrol at 6 h, LNCaP) in the compound's Connectivity Map profiles, 6 hr treatment; for celastrol rank: rank by celastrol score among 164 Connectivity Map compounds
Procedure, shortened: (§1)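 LNCaP cells received celastrol 1.25 μM or gedunin 20 μM for 6 h. Each signature was scored by Kolmogorov–Smirnov-based connectivity against 453 build01 profiles, mostly 6 h treatments of MCF7 cells.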

gedunin signature = test: Connectivity Map query with the gedunin signature; type: cell-based, human; design: key to gedunin score (connectivity score): connectivity score, based on Kolmogorov-Smirnov statistic; conditions: for gedunin score (connectivity score): enrichment of the gedunin signature (20 μM gedunin at 6 hours, LNCaP) in the compound's Connectivity Map profiles, 6 hr treatment; for gedunin rank: rank by gedunin score among 164 Connectivity Map compounds
Procedure, shortened: as §1

[2] = control wells, 1 nM R1881 plus 10 μM casodex, count of n = 336

Row | Molecule | celastrol score (connectivity score) (celastrol signature) | gedunin score (connectivity score) (gedunin signature) | also measured
1 | CC(=O)O[C@@H]1CC2C(C)(C)[C@H](O)CC[C@]2(C)C2CC[C@@]3(C)[C@H](c4ccoc4)OC(=O)C4OC43[C@@]21C (stereo partly drawn) [3alpha-hydroxydeoxodihydrogedunin] |  |  | GE-HTS screen # replicates that score as the androgon deprived state (n = 3): KNN [1]: 3; GE-HTS screen # replicates that score as the androgon deprived state (n = 3): Naïve Bayes classifier (P < 0.05) [1]: 3; GE-HTS screen # replicates that score as the androgon deprived state (n = 3): unweighted summed score (P < 0.05) [1]: 3; GE-HTS screen # replicates that score as the androgon deprived state (n = 3): weighted summed score (P < 0.05) [1]: 3
2 | CC1(C)C(=O)C=C[C@]2(C)[C@H]3CC[C@@]4(C)[C@H](c5ccoc5)OC(=O)[C@H]5O[C@]54[C@]3(C)C=C[C@@H]12 [7-desacetoxy-6,7-dehydrogedunin] |  |  | GE-HTS screen # replicates that score as the androgon deprived state (n = 3): KNN [1]: 3; GE-HTS screen # replicates that score as the androgon deprived state (n = 3): Naïve Bayes classifier (P < 0.05) [1]: 3; GE-HTS screen # replicates that score as the androgon deprived state (n = 3): unweighted summed score (P < 0.05) [1]: 3; GE-HTS screen # replicates that score as the androgon deprived state (n = 3): weighted summed score (P < 0.05) [1]: 3
3 | CC(=O)O[C@H]1CC[C@]2(C)[C@H]3C(=O)C=C4[C@@H]5[C@@H](C)[C@H](C)CC[C@]5(C(=O)O)CC[C@@]4(C)[C@]3(C)CC[C@H]2C1(C)C [11-oxoursolic acid acetate] |  |  | GE-HTS screen # replicates that score as the androgon deprived state (n = 3): KNN [1]: 3; GE-HTS screen # replicates that score as the androgon deprived state (n = 3): Naïve Bayes classifier (P < 0.05) [1]: 1; GE-HTS screen # replicates that score as the androgon deprived state (n = 3): unweighted summed score (P < 0.05) [1]: 3; GE-HTS screen # replicates that score as the androgon deprived state (n = 3): weighted summed score (P < 0.05) [1]: 2
4 | CC(C)(C)c1cc(/C=C(\C#N)C(N)=S)cc(C(C)(C)C)c1O [AG-879, reference compound] |  |  | GE-HTS screen # replicates that score as the androgon deprived state (n = 3): KNN [1]: 3; GE-HTS screen # replicates that score as the androgon deprived state (n = 3): Naïve Bayes classifier (P < 0.05) [1]: 2; GE-HTS screen # replicates that score as the androgon deprived state (n = 3): unweighted summed score (P < 0.05) [1]: 2; GE-HTS screen # replicates that score as the androgon deprived state (n = 3): weighted summed score (P < 0.05) [1]: 2
5 | C=C/C(C)=C\CC1C(C)(O)CCC2C(C)(C)CCCC21C (stereo not drawn) [abienol] |  |  | GE-HTS screen # replicates that score as the androgon deprived state (n = 3): KNN [1]: 2; GE-HTS screen # replicates that score as the androgon deprived state (n = 3): Naïve Bayes classifier (P < 0.05) [1]: 1; GE-HTS screen # replicates that score as the androgon deprived state (n = 3): unweighted summed score (P < 0.05) [1]: 3; GE-HTS screen # replicates that score as the androgon deprived state (n = 3): weighted summed score (P < 0.05) [1]: 3
6 | COc1ccc(C(C)C(=O)c2ccc(O)cc2O)cc1 (stereo not drawn) [angolensin] |  |  | GE-HTS screen # replicates that score as the androgon deprived state (n = 3): KNN [1]: 3; GE-HTS screen # replicates that score as the androgon deprived state (n = 3): Naïve Bayes classifier (P < 0.05) [1]: 3; GE-HTS screen # replicates that score as the androgon deprived state (n = 3): unweighted summed score (P < 0.05) [1]: 3; GE-HTS screen # replicates that score as the androgon deprived state (n = 3): weighted summed score (P < 0.05) [1]: 3
7 | CC(O)(CS(=O)(=O)c1ccc(F)cc1)C(=O)Nc1ccc(C#N)c(C(F)(F)F)c1 (stereo not drawn) [casodex, bicalutamide, reference compound] |  |  | GE-HTS screen # replicates that score as the androgon deprived state: KNN [1, 2]: 283; GE-HTS screen # replicates that score as the androgon deprived state: Naïve Bayes classifier (P < 0.05) [1, 2]: 268; GE-HTS screen # replicates that score as the androgon deprived state: unweighted summed score (P < 0.05) [1, 2]: 257; GE-HTS screen # replicates that score as the androgon deprived state: weighted summed score (P < 0.05) [1, 2]: 261
8 | O=C(O)c1cc(/N=N/c2ccc(S(=O)(=O)Nc3ccccn3)cc2)ccc1O [sulfasalazine] | 0 | 0 | 
9 | CSc1ccc(/C=C2/C(C)=C(CC(=O)O)c3cc(F)ccc32)cc1 [sulindac sulfide] | 0 | 0 | 
10 | CC1=C(CC(=O)O)c2cc(F)ccc2/C1=C\c1ccc([S+](C)[O-])cc1 (stereo not drawn) [sulindac] | 0.207 | 0.177 | 
11 | C=CC[C@@H]1/C=C(\C)C[C@H](C)C[C@H](OC)[C@H]2O[C@@](O)(C(=O)C(=O)N3CCCC[C@H]3C(=O)O[C@H](/C(C)=C/[C@@H]3CC[C@@H](O)[C@H](OC)C3)[C@H](C)[C@@H](O)CC1=O)[C@H](C)C[C@@H]2OC [tacrolimus] | 0 | 0 | 
12 | CC/C(=C(\c1ccccc1)c1ccc(OCCN(C)C)cc1)c1ccccc1 [tamoxifen] | 0 | 0.216 | 
13 | NCCNCCNCCNCCN [tetraethylenepentamine] | −0.039 | −0.092 | 
14 | O=C1CCC(N2C(=O)c3ccccc3C2=O)C(=O)N1 (stereo not drawn) [thalidomide] | −0.256 | 0.121 | 
15 | CSc1ccc2c(c1)N(CCC1CCCCN1C)c1ccccc1S2 (stereo not drawn) [thioridazine] | 0.308 | 0.522 | 
16 | Nc1nc2nc[nH]c2c(=S)[nH]1 [tioguanine] | 0 | −0.613 | 

Row | Molecule | celastrol score (connectivity score) (celastrol signature) | gedunin score (connectivity score) (gedunin signature) | also measured
17 | CCCCNC(=O)NS(=O)(=O)c1ccc(C)cc1 [tolbutamide] | 0.497 | 0 | 
18 | CCCc1c(OCCCCc2nnn[nH]2)ccc(C(C)=O)c1O [tomelukast] | 0.388 | 0 | 
19 | CC1(C)O[C@@H]2[C@@H](CO[C@@]3(COS(N)(=O)=O)OC(C)(C)O[C@@H]23)O1 [topiramate] | 0 | 0 | 
20 | CC1=C(/C=C/C(C)=C/C=C/C(C)=C/C(=O)O)C(C)(C)CCC1 [tretinoin] | −0.084 | −0.206 | 
21 | CC(/C=C/C(=O)NO)=C\[C@@H](C)C(=O)c1ccc(N(C)C)cc1 [trichostatin A] | −0.02 | 0.427 | celastrol rank (celastrol signature): 141; gedunin rank (gedunin signature): 29
22 | Cc1c(C)c2c(c(C)c1O)CCC(C)(COc1ccc(CC3SC(=O)NC3=O)cc1)O2 (stereo not drawn) [troglitazone] | 0.42 | 0.167 | 
23 | COc1cc(/C=C(\C#N)C(N)=O)cc(CSc2nc3ccccc3s2)c1O [tyrphostin AG-825] | 0 | 0 | celastrol rank (celastrol signature): 137; gedunin rank (gedunin signature): 141
24 | COc1cc2ncnc(Nc3cccc(Cl)c3)c2cc1OC [tyrphostin AG-1478] | 0 | 0.529 | celastrol rank (celastrol signature): 127; gedunin rank (gedunin signature): 14
25 | CCCC(CCC)C(=O)O [valproic acid] | 0.086 | 0.136 | 
26 | O=C(CCCCCCC(=O)Nc1ccccc1)NO [vorinostat] | 0 | 0.554 | 
27 | COC[C@H]1OC(=O)c2coc3c2[C@@]1(C)C1=C(C3=O)[C@@H]2CCC(=O)[C@@]2(C)C[C@H]1OC(C)=O [wortmannin] | −0.324 | 0.126 | 
28 | COC(=O)[C@@H]1[C@H]2C[C@H]3c4[nH]c5ccccc5c4CCN3C[C@@H]2CC[C@@H]1O [yohimbine] | 0 | 0 | 
29 | BW-B70C | 0.719 | 0.557 | celastrol rank (celastrol signature): 10; gedunin rank (gedunin signature): 12
30 | butirosin | 0 | −0.55 | celastrol rank (celastrol signature): 132; gedunin rank (gedunin signature): 162
31 | depudecin | 0.22 | 0.176 | 
32 | ikarugamycin | 0.172 | 0 | celastrol rank (celastrol signature): 59; gedunin rank (gedunin signature): 124

— US20110263693A1, “CELASTROL, GEDUNIN, AND DERIVATIVES THEREOF AS HSP90 INHIBITORS” (DANA-FARBER CANCER INSTITUTE, INC., priority 2006, published 2011)
